Test results reported in patent US20260042764A1, “COMPOSITIONS AND METHODS FOR INHIBITION OF KRAS” (TheRas, Inc., priority 2022, published 2026).

Legend:
[1] = biological target: T1, Avi-KRAS G12D (1-169) GppNHp/RAF1 RBD-3xFLAG (52-151) (Homo sapiens, UniProt P01116, G12D); experiment: Raf1-KRAS G12D-GppNHP disruption HTRF assay (Biological Example 1); assay type: binding; conditions: KRAS G12D-GppNHp/RAF1 RBD HTRF
T1 construct: Avi-KRAS G12D (1-169)
Outline: (§1)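 Measured with a KRAS/RAF1 HTRF assay at pH 7.5 in 10% DMSO, with two 1 h room-temperature incubations with shaking.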

[2] = biological target: T2, Avi-KRAS G12R (1-169) GppNHp/RAF1 RBD-3xFLAG (52-151) (Homo sapiens, UniProt P01116, G12R); experiment: Raf1-KRAS G12R-GppNHP disruption HTRF assay (Biological Example 1); assay type: binding; conditions: KRAS G12R-GppNHp/RAF1 RBD HTRF
T2 construct: Avi-KRAS G12R (1-169)
Outline: as §1

[3] = biological target: T3, Avi-KRAS G12V (1-169) GppNHp/RAF1 RBD-3xFLAG (52-151) (Homo sapiens, UniProt P01116, G12V); experiment: Raf1-KRAS G12V-GppNHP disruption HTRF assay (Biological Example 1); assay type: binding; conditions: KRAS G12V-GppNHp/RAF1 RBD HTRF
T3 construct: Avi-KRAS G12V (1-169)
Outline: as §1

[4] = biological target: T4, Avi-KRAS WT (1-169) GppNHp/RAF1 RBD-3xFLAG (52-151) (Homo sapiens, UniProt P01116); experiment: Raf1-KRAS WT-GppNHP disruption HTRF assay (Biological Example 1); assay type: binding; conditions: KRAS WT-GppNHp/RAF1 RBD HTRF
T4 construct: Avi-KRAS WT (1-169)
Outline: as §1

[5] = system: GP2d cells (KRAS G12D); experiment: Cell-based pERK HTRF assay in GP2d cell (Biological Example 2); conditions: GP2d, GP2d (KRAS G12D) cells, pERK HTRF
Outline: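 Cells grown in DMEM with 10% FBS were exposed to compound for 60 min at 0.25% DMSO, using a 9-point half-log series starting at 1 μM or 100 nM. Lysates were then mixed with d2 and Eu cryptate antibodies for 4–24 h at room temperature, and pERK was read by HTRF.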

[6] = system: SW620 cells (KRAS G12V); experiment: Cell-based pERK HTRF assay in SW620 cell (Biological Example 4); conditions: Homo sapiens, SW-620, SW620 (KRAS G12V) cells, pERK HTRF
Outline: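 SW620 cells were treated for 4 h with compound in a 9-point half-log series from 1 μM top (0.25% DMSO), then lysed. Phospho-ERK was detected by HTRF with d2 and Eu cryptate antibodies after 4–24 h at room temperature, read at 615 nm emission.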

T1 sequence (P01116 1-169 isoform P01116-2 G12D): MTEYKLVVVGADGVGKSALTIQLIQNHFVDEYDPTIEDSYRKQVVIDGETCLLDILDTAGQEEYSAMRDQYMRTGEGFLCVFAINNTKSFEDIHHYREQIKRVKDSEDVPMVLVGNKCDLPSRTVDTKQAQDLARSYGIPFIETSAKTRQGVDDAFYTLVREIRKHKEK
T3 sequence (P01116 1-169 isoform P01116-2 G12V): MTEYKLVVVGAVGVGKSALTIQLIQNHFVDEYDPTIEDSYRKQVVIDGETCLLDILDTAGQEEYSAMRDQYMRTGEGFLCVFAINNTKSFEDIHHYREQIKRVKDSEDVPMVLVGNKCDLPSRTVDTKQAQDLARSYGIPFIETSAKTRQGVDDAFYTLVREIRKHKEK
T2 sequence (P01116 1-169 isoform P01116-2 G12R): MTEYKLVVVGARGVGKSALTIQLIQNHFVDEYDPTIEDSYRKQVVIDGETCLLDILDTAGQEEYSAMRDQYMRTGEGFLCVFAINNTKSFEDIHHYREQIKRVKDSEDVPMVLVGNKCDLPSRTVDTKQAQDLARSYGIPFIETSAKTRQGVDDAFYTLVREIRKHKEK
T4 sequence (P01116 1-169 isoform P01116-2): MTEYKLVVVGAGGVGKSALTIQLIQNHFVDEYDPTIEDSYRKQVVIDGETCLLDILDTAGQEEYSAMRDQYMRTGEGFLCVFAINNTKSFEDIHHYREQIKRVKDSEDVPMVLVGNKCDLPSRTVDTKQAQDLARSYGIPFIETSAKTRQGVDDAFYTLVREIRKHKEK

SMILES | IC50 [1] [nM] | IC50 [2] [nM] | IC50 [3] [nM] | IC50 [4] [nM] | IC50 [5] [nM] | IC50 [6] [nM]
N#Cc1c(N)sc2c(F)ccc(-c3c(C(F)(F)F)cc4c(N5C[C@H]6C[C@@H]5[C@@H](O)C6)nc(OC[C@@]56CCCN5C[C@H](F)C6)nc4c3F)c12 [Compound 360] | 1000 to 10000 | 1000 to 10000 | 1000 to 10000 | 1000 to 10000 | < 100 | 100 to 1000
N#Cc1c(N)sc2c(F)ccc(-c3c(C(F)(F)F)cc4c(N5C[C@H]6C[C@H](O)[C@@H]5C6)nc(OC[C@@]56CCCN5C[C@H](F)C6)nc4c3F)c12 [Compound 361] | 100 to 1000 | 100 to 1000 | 1000 to 10000 | 100 to 1000 | < 100 | < 100
N#Cc1c(N)sc2c(F)ccc(-c3c(C(F)(F)F)cc4c(N5C[C@H]6C[C@@H](O)[C@@H]5C6)nc(OC[C@@]56CCCN5C[C@H](F)C6)nc4c3F)c12 [Compound 362] | 100 to 1000 | 100 to 1000 | 1000 to 10000 | 100 to 1000 | < 100 | 100 to 1000
N#Cc1c(N)sc2c(F)ccc(-c3c(Cl)cc4c(N5C[C@H]6C[C@@H]5CO6)nc(OC[C@@]56CCCN5C[C@H](F)C6)nc4c3F)c12 [Compound 364] | 100 to 1000 | 1000 to 10000 | 1000 to 10000 | 1000 to 10000 | < 100 | < 100
N#Cc1c(N)sc2c(F)ccc(-c3c(C(F)(F)F)cc4c(N5CC6CC(C5)O6)nc(OC[C@@]56CCCN5C[C@]5(CC5(F)F)C6)nc4c3F)c12 [Compound 365] | 100 to 1000 | 100 to 1000 | 100 to 1000 | 100 to 1000 | < 100 | < 100
N#Cc1c(N)sc2c(F)ccc(-c3c(C(F)(F)F)cc4c(N5CC6CC(C5)O6)nc(OC[C@@]56CCCN5C[C@@]5(CC5(F)F)C6)nc4c3F)c12 [Compound 366] | 100 to 1000 | 1000 to 10000 | 1000 to 10000 | 100 to 1000 | < 100 | < 100
N#Cc1c(N)sc2c(F)ccc(-c3c(C(F)(F)F)cc4c(N5C6COCC5CC(O)C6)nc(OC[C@@]56CCCN5C[C@H](F)C6)nc4c3F)c12 (stereo partly drawn) [Compound 374] | 100 to 1000 | 1000 to 10000 | 1000 to 10000 | 100 to 1000 | < 100 | < 100
N#Cc1c(N)sc2c(F)ccc(-c3c(C(F)(F)F)cc4c(N5[C@@H]6CO[C@H]7C6OC[C@H]75)nc(OC[C@@]56CCCN5C[C@H](F)C6)nc4c3F)c12 [Compound 382] | 100 to 1000 | 1000 to 10000 | 1000 to 10000 | 100 to 1000 | < 100 | < 100
N#Cc1cc2n(n1)CCN(c1nc(OC[C@@]34CCCN3C[C@H](F)C4)nc3c(F)c(-c4ccc(F)c5sc(N)c(C#N)c45)c(C(F)(F)F)cc13)C2 [Compound 393] | 1000 to 10000 | > 10000 | > 10000 | > 10000 | < 100 | < 100
CCN(c1nc(OC[C@@]23CCCN2C[C@H](F)C3)nc2c(F)c(-c3ccc(F)c4sc(N)c(C#N)c34)c(C(F)(F)F)cc12)[C@H]1CCN(C(=O)N(C)C)C1 [Compound 395] | < 100 | < 100 | < 100 | < 100 | < 100 | < 100
CCN(c1nc(OC[C@@]23CCCN2C[C@H](F)C3)nc2c(F)c(-c3ccc(F)c4sc(N)c(C#N)c34)c(C(F)(F)F)cc12)[C@@H]1CCN(C(=O)OC)C1 [Compound 396] | 100 to 1000 | 100 to 1000 | 100 to 1000 | 100 to 1000 | < 100 | < 100
CCC(=O)N1CC[C@@H](N(C)c2nc(OC[C@@]34CCCN3C[C@H](F)C4)nc3c(F)c(-c4ccc(F)c5sc(N)c(C#N)c45)c(Cl)cc23)[C@H]1C [Compound 399] | 100 to 1000 | 100 to 1000 | 100 to 1000 | 100 to 1000 | < 100 | < 100
C[C@@H]1[C@H](N(C)c2nc(OC[C@@]34CCCN3C[C@H](F)C4)nc3c(F)c(-c4ccc(F)c5sc(N)c(C#N)c45)c(Cl)cc23)CCN1C(=O)C1CC1 [Compound 401] | 100 to 1000 | 100 to 1000 | 100 to 1000 | 100 to 1000 | < 100 | < 100
C[C@H]1CN(c2nc(OC[C@@]34CCCN3C[C@H](F)C4)nc3c(F)c(-c4ccc(F)c5sc(N)c(C#N)c45)c(C(F)(F)F)cc23)Cc2cc(C(=O)N(C)C)nn21 [Compound 402] | 100 to 1000 | 100 to 1000 | 100 to 1000 | 1000 to 10000 | < 100 | < 100
N#Cc1c(N)sc2c(F)ccc(-c3c(C(F)(F)F)cc4c(N5CCO[C@H]6C[C@H]65)nc(OC[C@@]56CCCN5C[C@H](F)C6)nc4c3F)c12 [Compound 403] | 100 to 1000 | 100 to 1000 | 100 to 1000 | 100 to 1000 | < 100 | < 100
CN(C)C(=O)c1nc2c(s1)CN(c1nc(OCC34CCCN3CC(F)C4)nc3c(F)c(-c4ccc(F)c5sc(N)c(C#N)c45)c(C(F)(F)F)cc13)CC2 (stereo not drawn) [Compound 404] | 1000 to 10000 | > 10000 | 1000 to 10000 | < 100 | < 100 | < 100
CCC(=O)N1CC[C@@H](N(CC)c2nc(OC[C@@]34CCCN3C[C@H](F)C4)nc3c(F)c(-c4ccc(F)c5sc(N)c(C#N)c45)c(C(F)(F)F)cc23)[C@H]1C [Compound 405] | 100 to 1000 | 100 to 1000 | 100 to 1000 | 100 to 1000 | < 100 | < 100
CCN(c1nc(OC[C@@]23CCCN2C[C@H](F)C3)nc2c(F)c(-c3ccc(F)c4sc(N)c(C#N)c34)c(C(F)(F)F)cc12)[C@@H]1CCN(C(=O)C2CC2)[C@@H]1C [Compound 406] | 100 to 1000 | 100 to 1000 | 100 to 1000 | 100 to 1000 | < 100 | < 100
C[C@@H]1[C@H](N(C)c2nc(OC[C@@]34CCCN3C[C@H](F)C4)nc3c(F)c(-c4ccc(F)c5sc(N)c(C#N)c45)c(Cl)cc23)CCN1C(=O)C(F)F [Compound 408] | 100 to 1000 | 1000 to 10000 | 1000 to 10000 | 100 to 1000 | < 100 | 100 to 1000
C[C@@H]1[C@H](N(C)c2nc(OC[C@@]34CCCN3C[C@H](F)C4)nc3c(F)c(-c4ccc(F)c5sc(N)c(C#N)c45)c(C(F)(F)F)cc23)CCN1C(=O)N(C)C [Compound 409] | 100 to 1000 | 100 to 1000 | 100 to 1000 | 100 to 1000 | < 100 | < 100
